Reference: ChEMBL document CHEMBL1201862, “PubChem BioAssay data set” (2004)
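Grown in 96-well plates, cells were treated for 48 hours with each compound at five concentrations. Insufficient inhibition: endpoint recorded as highest concentration tested. GI50 marks 50% less growth.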 Activity calls are given as the source filed them. No stated cut-off is given here; in the data, active = GI50 up to about 1.1 µM and inactive = higher.

Experiments:
Test in all cases: DTP human tumour cell line panel, 48 h
SR = system: SR
MDA-MB-435 = system: MDA-MB-435
MDA-MB-231 = system: MDA-MB-231
T47D = system: T47D
LXFL 529 = system: LXFL 529
BT-549 = system: BT-549
Hs-578T = system: Hs-578T
RXF 631 = system: RXF 631

| Structure (SMILES) | GI50 (SR) | GI50 (MDA-MB-435) | GI50 (MDA-MB-231) | GI50 (T47D) | GI50 (LXFL 529) | GI50 (BT-549) | GI50 (Hs-578T) | GI50 (RXF 631) |
| --- | --- | --- | --- | --- | --- | --- | --- | --- |
| CCOC(=O)c1csc(NC(=O)C(C)N2CCOCC2)n1 (stereo unspecified) | > 100 µM (inactive) | > 100 µM (inactive) | > 100 µM (inactive) | > 100 µM (inactive) | – | – | – | – |
| N#CCCN(CCC#N)c1ccc(/C=C2\N=C(c3cc([N+](=O)[O-])ccc3Cl)N(S(=O)(=O)c3ccccc3)C2=O)cc1 | > 100 µM (inactive) | – | – | – | > 100 µM (inactive) | – | – | – |
| CO/N=C1/c2sccc2[C@H](NC(=O)C(Cc2ccccc2)NC(=O)OC(C)(C)C)[C@@H]1O (stereo partly specified) | 49.5 µM (inactive) | > 100 µM (inactive) | > 100 µM (inactive) | 63.2 µM (inactive) | – | > 100 µM (inactive) | > 100 µM (inactive) | – |
| CCC1CN2CCc3cc(OC)c(OC)cc3C2CC1CC1c2cc(OC)c(OC)cc2CCN1C(=O)C(N)Cc1ccccc1.[O-][Cl+3]([O-])([O-])O (stereo unspecified) | 0.423 µM (active) | – | – | – | 1.67 µM (inactive) | – | – | 2.54 µM (inactive) |
| CNC(=S)N/N=C(/C)CCC/C(C)=N/NC(=S)NC | 3.89 µM (inactive) | > 71.8 µM (inactive) | > 28.6 µM (inactive) | 1.23 µM (inactive) | – | > 100 µM (inactive) | > 100 µM (inactive) | – |
